9 compounds from ChEMBL document CHEMBL1132864, “Anti-AIDS agents part 41: synthesis and anti-HIV activity of 3',4'-di-o-(-)-camphanoyl-(+)-cis-khellactone (DCK) lactam analogues” (Bioorg Med Chem Lett, 2000) can be followed below.

For series [1], the system named is H9. The series is described as follows: Concentration required to inhibit uninfected H9 cell growth. The series is classed as functional, cell-based. Particulars: Homo sapiens; call rule not given here.
Series [2] is described as follows: Therapeutic index for inhibition of uninfected H9 cell growth to that of inhibition of HIV-1 replication in H9 lymphocyte cells; […]. It is filed as cell-based. Particulars: human.
Series [3] can be described thus: Therapeutic index for inhibition of uninfected H9 cell growth to that of inhibition of HIV-1 replication in H9 lymphocyte cells; Precipitated in the media. Particulars: human. The series is classed as cell-based.
For series [4], the system named is H9. The series is described as follows: Concentration required to inhibit HIV-1 replication in H9 lymphocyte cells. It is filed as functional, cell-based. Particulars: Homo sapiens.
A short description of series [5]: Therapeutic index for inhibition of uninfected H9 cell growth to that of inhibition of HIV-1 replication in H9 lymphocyte cells. It is filed as cell-based. Particulars: human, H9 lymphocyte cells (uninfected and HIV-1 infected); read-out: TI.
Series [6] can be described thus: Therapeutic index for inhibition of uninfected H9 cell growth to that of inhibition of HIV-1 replication in H9 lymphocyte cells;Did not dissolve. Particulars: human. It is filed as cell-based.

As for `Cc1cc(O)nc2cc(N)ccc12`, in the series on H9 [1], 104 µM corresponded to half-maximal inhibition (IC50). For the same compound, the TI entry in series [2] is “Not Active”.
`Cc1cc(=O)n(C(=O)OC(C)(C)C)c2c3c(ccc12)OC(C)(C)C=C3`: the TI entry in series [3] is reported as “Precipitated”.
Consider `Cc1c(O)nc2c3c(ccc2c1C)OC(C)(C)[C@H](OC(=O)C12CCC(C)(C(=O)O1)C2(C)C)[C@@H]3OC(=O)C12CCC(C)(C(=O)O1)C2(C)C` (stereo partly specified), for which the EC50 (in general, the concentration at which the effect is half-maximal) in the series with H9 [4] was 0.0046 µM. In addition, the IC50 (in general, the concentration that inhibits the measured activity by half) in the series with H9 [1] amounted to 42 µM. Moreover, in series [5], the selectivity ratio was determined as 9100.
Regarding `CC1(C)Oc2ccc3ccc(=O)oc3c2[C@@H](OC(=O)C23CCC(C)(C(=O)O2)C3(C)C)[C@H]1OC(=O)C12CCC(C)(C(=O)O1)C2(C)C` (stereo partly specified), the selectivity ratio in series [5] came out at 137000.
For the compound `Cc1cc(=O)n(C(=O)OC(C)(C)C)c2c3c(ccc12)OC(C)(C)[C@H](O)[C@@H]3O`, in series [3], the TI result is given as “Precipitated”.
As for `Cc1cc(O)nc2c3c(ccc12)OC(C)(C)C=C3`, the TI result in series [6] is “Did not dissolve”.
With `Cc1cc(O)nc2c3c(ccc12)OC(C)(C)[C@H](OC(=O)C12CCC(C)(C(=O)O1)C2(C)C)[C@@H]3OC(=O)C12CCC(C)(C(=O)O1)C2(C)C` (stereo partly specified), a half-maximal effect in the series with H9 [4] (EC50) was put at 0.00024 µM. The compound also returned a concentration for half-maximal inhibition (IC50) in the series on H9 [1] of 28 µM. Moreover, the selectivity ratio in series [5] was found to be 119000.
Turning to `Cc1cc(O)nc2cc(O)ccc12`, the concentration for half-maximal inhibition (IC50) in the series with H9 [1] came to 125 µM. The TI entry in series [2] was “Not Active”.
In the case of `Cc1cc(=O)n(C(=O)OC(C)(C)C)c2c3c(ccc12)OC(C)(C)[C@H](OC(=O)C12CCC(C)(C(=O)O1)C2(C)C)[C@@H]3OC(=O)C12CCC(C)(C(=O)O1)C2(C)C` (stereo partly specified), the IC50 in the series on H9 [1] is > 157 µM. The TI result in series [2] was “Not Active”.
